The text below walks through data of patent US12509439B2, “Anti-malarial agents” (UNIVERSITY OF KENTUCKY RESEARCH FOUNDATION, priority 2020, dated 2025).

Where only a bound is given, the exact number is not on record here.

One data set has as its target T1, PfATP-4 (Plasmodium falciparum, UniProt A0A143ZZK9).
T1 construct: Saponin-isolated parasites at a density of 1.4-1.8×10^8 cells/mL; endogenous in cells
Put plainly: Effect on cytosolic [Na+] in saponin-isolated Plasmodium falciparum (sodium flux assay, SBFI). The format is cell-based. The conditions noted are these: SBFI-loaded 3D7 parasites, compound at 1 μM. The source says: The ability of compounds of the invention to function as inhibitors of the Na+/H+-ATPase, which regulates parasite cytosolic sodium concentration has been tested in the following assay. Their effect on cytosolic sodium can be measured using a sodium flux assay (Biochemical characterization and chemical inhibition of PfATP4-associated Na+-ATPase activity in Plasmodium falciparum membranes. Rosling J. E. O. et al., 2018, J. Biol. Chem., 293: 13397). Saponin-isolated parasites at a density of 1.4-1.8×10^8 cells/mL, were suspended in bicarbonate-free RPMI1640 supplemented with 20 mM D-glucose, 0.2 mM hypoxanthine, 25 mM HEPES and 25 mg/L gentamycin sulfate (pH 7.10), then treated with sodium-binding benzofuran isophthalate acetoxymethyl ester ([…]) and Pluronic F-127 (0.01% w/v) for 20 min at 37° C. The dye-loaded cells were washed twice (12,000 g, 0.5 min) in bicarbonate-free RPMI then incubated for a further 20 min at 37° C. to allow for complete de-esterification of the dye before being resuspended at a final cell concentration of 1.5-2.5×10^7 cells/mL in standard saline. […] [Na+] was determined according to reference to a calibration curve of the 340/380 nm fluorescence ratio as described previously (In situ calibration and [H+] sensitivity of the fluorescent Na+ indicator SBFI. Diarra A. et al., 2001, Am. J. Physiol. Cell Physiol., 280: 1623).

The nature of data set [1]: PK parameters in rat (IV and PO). The format is in vivo. The conditions noted are these: for PK parameters (rat): F: 1 mg/kg IV and 3 mg/kg PO; for clearance / half-life: Sprague Dawley, plasma, IV arm, 1 mg/kg; for clearance: read-out: PK parameters (rat): Cl; for half-life: read-out: PK parameters (rat): t1/2. On the procedure: Swiss Albino male mice or Sprague Dawley rats (TCGLS, India) were kept under a 12/12 h light/dark cycle, 22±2° C. temp, 50±20% RH with free access to food and water ad libitum. Mice were selected randomly/based on body weight/age and fasted for 4 h before dosing and until 2 h after dosing. Three mice were used per route of administration. For IV determination (1 mg/kg, dose volume 5 ml/kg) the dose was administered by injection into the lateral tail vein (rats are anaesthetized using 3% v/v isoflurane: oxygen mixture). For PO determination (3 mg/kg, dose volume 10 ml/kg) the dose was administered by oral gavage in conscious animals.
Blood samples were taken (mice 50 μL, rat 100 μL) at regular timepoints from the saphenous vein (conscious restrained animals) and collected into heparinized capillary tubes and transferred into 0.5 mL microcentrifuge tubes. Samples were processed by centrifugation at 1640 g for 10 min at +4° C. within 30 min of collection and stored at −20° C. until bioanalysis. All samples were mixed with ice-cold acetonitrile containing an internal standard, centrifuged at 4000 rpm for 15 min at 15° C. Supernatant was then half diluted in water and analysed by LCMS/MS analysis to determine analyte peak area/IS peak area (the ratio). Concentration (plasma) of the compounds of the invention was determined by reference to a calibration curve. Pharmacokinetic parameters (Cmax, Tmax, AUC, t1/2, CL, Vd, BA) were calculated using WinNonLin, using non-compartmental analysis (Phoenix, Version 6.3). The pharmacokinetic parameters for compounds shown in Table 2 support that compounds of the invention have pharmacokinetic properties associated with treatment of malaria via the oral route and that compounds have substantially longer half-lives than the reference compound.

Data set [2] is described as follows: Microsomal intrinsic clearance, rat liver microsomes. The format is in vitro ADME. The note with it: rat liver microsomes (pooled), pH 7.4, 45 min, NADPH. The protocol: The compounds of the invention (1 μM) were incubated in suspension with human (rat or mouse) liver microsomes pooled from multiple donors (>10) and samples taken at 5 time points over the course of a 45 min experiment and analysed by LC MS/MS. Microsomes (final protein concentration 0.5 mg/mL), 0.1 M phosphate buffer pH 7.4 and test compound (final substrate concentration 1 μM; final DMSO concentration 0.25%) were pre-incubated at 37° C. prior to the addition of NADPH (final concentration 1 mM) to initiate the reaction. A minus cofactor control incubation was included for each compound tested where 0.1 M phosphate buffer pH 7.4 is added instead of NADPH (minus NADPH). All incubations were performed in duplicate for each test compound and the results averaged. Each compound is incubated for 0, 5, 15, 30 and 45 min. The control (minus NADPH) was incubated for 45 min only. The reactions were stopped by transferring incubate into acetonitrile at the appropriate time points, in a 1:3 ratio.
The termination plates were centrifuged at 3,000 rpm for 20 min at 4° C. to precipitate the protein. Following protein precipitation, the sample supernatants were combined in cassettes of up to 4 compounds, internal standard added and samples analysed by LC-MS/MS. From a plot of ln peak area ratio (compound peak area/internal standard peak area) against time, the gradient of the line is determined. Subsequently, half-life (t½) and intrinsic clearance (CLint) are calculated using the equations below: Elimination rate constant (k)=(−gradient) Half-life (t1/2)(min)=0.693/k Intrinsic clearance (i.e. CLint)(μL/min/mg protein)=V×0.693/t1/2 where V=Incubation volume (μL)/Microsomal protein (mg)
Verapamil and dextromethorphan were included in the assay as controls and if the values for these compounds were not within the specified limits the results were rejected and the experiment repeated.
(Liver microsomes are a subcellular fraction often used to study metabolism.)

A short description of data set [3]: Pharmacokinetic profile in dog (IV). The note with it: in vivo; for clearance: read-out: Cl (dog); for half-life: read-out: t½ (dog) (converted).

T1 sequence (A0A143ZZK9 whole entry): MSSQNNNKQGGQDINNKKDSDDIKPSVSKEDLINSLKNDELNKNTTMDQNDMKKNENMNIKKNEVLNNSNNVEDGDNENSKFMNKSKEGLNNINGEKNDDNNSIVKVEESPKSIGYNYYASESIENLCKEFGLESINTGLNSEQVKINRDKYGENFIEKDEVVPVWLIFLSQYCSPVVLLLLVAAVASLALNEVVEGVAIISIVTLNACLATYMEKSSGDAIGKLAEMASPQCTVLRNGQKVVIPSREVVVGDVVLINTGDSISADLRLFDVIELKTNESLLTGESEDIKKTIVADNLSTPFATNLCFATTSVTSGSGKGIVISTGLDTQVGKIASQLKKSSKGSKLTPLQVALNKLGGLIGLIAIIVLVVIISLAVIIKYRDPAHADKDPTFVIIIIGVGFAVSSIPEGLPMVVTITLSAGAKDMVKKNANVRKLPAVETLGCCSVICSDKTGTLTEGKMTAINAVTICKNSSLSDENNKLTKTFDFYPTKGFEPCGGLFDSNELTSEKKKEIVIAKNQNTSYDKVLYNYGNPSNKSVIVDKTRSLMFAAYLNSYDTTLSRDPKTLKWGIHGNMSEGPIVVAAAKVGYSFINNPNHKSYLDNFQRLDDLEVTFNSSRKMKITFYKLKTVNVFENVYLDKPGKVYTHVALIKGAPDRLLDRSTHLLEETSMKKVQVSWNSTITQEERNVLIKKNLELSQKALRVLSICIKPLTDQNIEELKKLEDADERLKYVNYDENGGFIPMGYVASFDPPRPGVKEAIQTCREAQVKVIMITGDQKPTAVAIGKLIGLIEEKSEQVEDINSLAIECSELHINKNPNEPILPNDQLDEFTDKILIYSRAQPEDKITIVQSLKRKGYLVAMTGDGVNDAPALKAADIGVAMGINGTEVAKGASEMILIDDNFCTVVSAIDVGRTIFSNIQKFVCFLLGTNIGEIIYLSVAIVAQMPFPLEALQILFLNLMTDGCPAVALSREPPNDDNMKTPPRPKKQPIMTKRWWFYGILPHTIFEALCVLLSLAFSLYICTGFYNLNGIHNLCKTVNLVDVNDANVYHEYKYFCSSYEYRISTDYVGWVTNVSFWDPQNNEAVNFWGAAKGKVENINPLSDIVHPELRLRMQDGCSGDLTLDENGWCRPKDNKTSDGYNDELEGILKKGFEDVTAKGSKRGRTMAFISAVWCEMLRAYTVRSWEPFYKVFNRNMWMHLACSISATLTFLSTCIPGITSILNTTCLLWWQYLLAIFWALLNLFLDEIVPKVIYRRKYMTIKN

As a reminder, the microsomal CLint is the rate of metabolic loss divided by the concentration. Take `N#Cc1cc(NC(=O)[C@H]2c3ccccc3C(=O)N(CC(F)(F)F)[C@@H]2c2ccc(OC3CC3)nc2)ccc1F` (single isomer, unassigned) [(1a)]: the “Effect on cytosolic [Na+]” value on PfATP-4 is recorded as “increase of cytosolic sodium concentration”. Moreover, in data set [1], the “PK parameters (rat): F” value was “F = 107%”, the clearance worked out at 1 mL/min/kg and the half-life stood at 26 h. The compound also yielded an intrinsic clearance (microsomal CLint) at 1 μM in data set [2] of less than 10 µL/min/mg. In addition, in data set [3] (IV at 1 mg/kg), the clearance was determined as 0.26 mL/min/kg and the half-life is 41 h.

Turning to `N#Cc1cc(NC(=O)[C@H]2c3ccccc3C(=O)N(CC(F)(F)F)[C@@H]2c2cnc(C(F)(F)F)nc2)ccc1F` [(9a), (3S,4S)—N-(3-cyano-4-fluorophenyl)-1-oxo-2-(2,2,2-trifluoroethyl)-3-(2-(trifluoromethyl)pyrimidin-5-yl)-1,2,3,4-tetrahydroisoquinoline-4-carboxamide], the “Effect on cytosolic [Na+]” value on PfATP-4 is on record as “increase of cytosolic sodium concentration”. Also, in data set [1], the “PK parameters (rat): F” value is reported as “F = 65%”, the clearance was 1.33 mL/min/kg and the half-life was found to be 22 h. Further, the microsomal CLint at 1 μM in data set [2] is less than 10 µL/min/mg.

Regarding `N#Cc1cc(NC(=O)[C@H]2c3ccccc3C(=O)N(CC(F)(F)F)[C@@H]2c2cccnc2)ccc1F` [(+) SJ-733, 4-Isoquinolinecarboxamide, N-(3-cyano-4-fluorophenyl)-1,2,3,4-tetrahydro-1-oxo-3-(3-pyridinyl)-2-(2,2,2-trifluoroethyl)-, (3S,4S)-, reference compound], in data set [1], the “PK parameters (rat): F” value was “F = 75%”, the clearance was determined as 13.3 mL/min/kg and the half-life was determined as 7.7 h. In addition, the microsomal CLint at 1 μM in data set [2] is less than 6 µL/min/mg. For the same compound, in data set [3] (IV at dose 3 mg/kg), the clearance was 3 mL/min/kg and the half-life was 10 h.
